Assay results published in US7271165B2, “Rifamycin analogs and uses thereof” (priority 2003, dated 2007).
≈ marks a conversion by molar mass, not a printed value. Read-outs that look alike come from different tables or passages of the source.

Assays:
S. aureus = experiment: MIC assay, S. aureus; assay type: cell-based, Staphylococcus aureus
S. pneumo. = experiment: MIC assay, S. pneumo.; assay type: cell-based, Streptococcus pneumoniae
E. faecalis = experiment: MIC assay, E. faecalis; assay type: cell-based, Enterococcus faecalis
H. flu = assay type: cell-based, H. influenza
E coli = experiment: MIC assay, E coli; assay type: cell-based

## CO[C@H]1/C=C/OC2(C)Oc3c(C)c(O)c4c(=O)c(c5oc6cc(N7CC8CC7CN8)cc(O)c6nc-5c4c3C2=O)NC(=O)/C(C)=C\C=C\[C@H](C)[C@H](O)[C@@H](C)[C@@H](O)[C@@H](C)[C@H](OC(C)=O)[C@@H]1C (stereo partly shown)
other
  melting point: > 330 °C

## CO[C@H]1/C=C/OC2(C)Oc3c(C)c(O)c4c(=O)c(c5oc6cc(N7CC8CCC7CN8)cc(O)c6nc-5c4c3C2=O)NC(=O)/C(C)=C\C=C\[C@H](C)[C@H](O)[C@@H](C)[C@@H](O)[C@@H](C)[C@H](OC(C)=O)[C@@H]1C (stereo partly shown)
other
  melting point: > 300 °C

## COC1C=COC2(C)Oc3c(C)c(O)c4c(=O)c(c5oc6cc(N(C)C7CCN(C)CC7)cc(O)c6nc-5c4c3C2=O)NC(=O)C(C)=CC=CC(C)C(O)C(C)C(O)C(C)C(O)C1C (stereo not shown) [Compound 126]
S. aureus
  MIC (μg/mL) S. aureus: 0.004 µg/mL (≈ 0.00452 µM)
S. pneumo.
  MIC (μg/mL) S. pneumo.: 0.00025 µg/mL (≈ 0.000282 µM)
E. faecalis
  MIC (μg/mL) E. faecalis: 0.5 µg/mL (≈ 0.565 µM)
H. flu; H. flu
  MIC (μg/mL) H. flu: 0.25 µg/mL (≈ 0.282 µM)
E coli
  MIC (μg/mL) E coli: 4 µg/mL (≈ 4.52 µM)

## COC1C=COC2(C)Oc3c(C)c(O)c4c(=O)c(c5oc6cc(N(C)CCC#N)ccc6nc-5c4c3C2=O)NC(=O)C(C)=CC=CC(C)C(O)C(C)C(O)C(C)C(O)C1C (stereo not shown) [Compound 127]
S. aureus
  MIC (μg/mL) S. aureus: 0.06 µg/mL (≈ 0.0727 µM)
S. pneumo.
  MIC (μg/mL) S. pneumo.: 0.008 µg/mL (≈ 0.0097 µM)
E. faecalis
  MIC (μg/mL) E. faecalis: 0.5 µg/mL (≈ 0.606 µM)
H. flu; H. flu
  MIC (μg/mL) H. flu: 0.12 µg/mL (≈ 0.145 µM)
E coli
  MIC (μg/mL) E coli: 8 µg/mL (≈ 9.7 µM)

## COC1C=COC2(C)Oc3c(C)c(O)c4c(=O)c(c5oc6cc(N7CCOCC7)cc(O)c6nc-5c4c3C2=O)NC(=O)C(C)=CC=CC(C)C(O)C(C)C(O)C(C)C(O)C1C (stereo not shown) [Compound 128]
S. aureus
  MIC (μg/mL) S. aureus: 0.004 µg/mL (≈ 0.00474 µM)
S. pneumo.
  MIC (μg/mL) S. pneumo.: 0.00025 µg/mL (≈ 0.000296 µM)
E. faecalis
  MIC (μg/mL) E. faecalis: 0.06 µg/mL (≈ 0.0711 µM)
H. flu
  MIC (μg/mL) H. flu: 0.12 µg/mL (≈ 0.142 µM)
E coli
  MIC (μg/mL) E coli: >8 µg/mL

## COC1C=COC2(C)Oc3c(C)c(O)c4c(=O)c(c5sc6cc(N7CCOCC7)ccc6nc-5c4c3C2=O)NC(=O)C(C)=CC=CC(C)C(O)C(C)C(O)C(C)C(O)C1C (stereo not shown) [Compound 129]
S. aureus
  MIC (μg/mL) S. aureus: 0.015 µg/mL (≈ 0.0178 µM)
S. pneumo.
  MIC (μg/mL) S. pneumo.: 0.001 µg/mL (≈ 0.00118 µM)
E. faecalis
  MIC (μg/mL) E. faecalis: 0.5 µg/mL (≈ 0.592 µM)
H. flu
  MIC (μg/mL) H. flu: 0.06 µg/mL (≈ 0.0711 µM)
E coli
  MIC (μg/mL) E coli: 4 µg/mL (≈ 4.74 µM)

## CO[C@H]1/C=C/O[C@@]2(C)Oc3c(C)c(O)c4c(=O)c(c5n(C)c6ccccc6nc-5c4c3C2=O)NC(=O)/C(C)=C\C=C\[C@H](C)[C@H](O)[C@@H](C)[C@@H](O)[C@@H](C)[C@H](O)[C@@H]1C [Compound 131]
S. aureus
  MIC (μg/mL) S. aureus: 0.5 µg/mL (≈ 0.661 µM)
S. pneumo.
  MIC (μg/mL) S. pneumo.: 0.5 µg/mL (≈ 0.661 µM)
E. faecalis
  MIC (μg/mL) E. faecalis: 2 µg/mL (≈ 2.65 µM)
H. flu
  MIC (μg/mL) H. flu: 2 µg/mL (≈ 2.65 µM)
E coli
  MIC (μg/mL) E coli: 8 µg/mL (≈ 10.6 µM)

## C=CCc1cc(C)cc2nc3c4c5c6c(C)c(O)c4c(=O)c(c-3oc12)NC(=O)C(C)=CC=CC(C)C(O)C(C)C(O)C(C)C(O)C(C)C(OC)C=COC(C)(O6)C5=O (stereo not shown) [Compound 132]
S. aureus
  MIC (μg/mL) S. aureus: 0.06 µg/mL (≈ 0.0753 µM)
S. pneumo.
  MIC (μg/mL) S. pneumo.: 0.03 µg/mL (≈ 0.0376 µM)
E. faecalis
  MIC (μg/mL) E. faecalis: 2 µg/mL (≈ 2.51 µM)
H. flu
  MIC (μg/mL) H. flu: 0.5 µg/mL (≈ 0.627 µM)
E coli
  MIC (μg/mL) E coli: >8 µg/mL

## CO[C@H]1/C=C/O[C@@]2(C)Oc3c(C)c(O)c4c(=O)c(c5oc6cccc(O)c6nc-5c4c3C2=O)NC(=O)/C(C)=C\C=C\[C@H](C)[C@H](O)[C@@H](C)[C@@H](O)[C@@H](C)[C@H](O)[C@@H]1C [Compound 133]
S. aureus
  MIC (μg/mL) S. aureus: 0.004 µg/mL (≈ 0.00527 µM)
S. pneumo.
  MIC (μg/mL) S. pneumo.: 0.002 µg/mL (≈ 0.00264 µM)
E. faecalis
  MIC (μg/mL) E. faecalis: 0.12 µg/mL (≈ 0.158 µM)
H. flu
  MIC (μg/mL) H. flu: 0.25 µg/mL (≈ 0.329 µM)
E coli
  MIC (μg/mL) E coli: 8 µg/mL (≈ 10.5 µM)
